US20210321985A1, “COMPOSITIONS AND METHODS FOR TARGETED CONTRAST AGENTS FOR MOLECULAR IMAGING” (ARIZONA BOARD OF REGENTS ON BEHALF OF THE UNIVERSITY OF …, priority 2016, published 2021)

Assay: Dissolution time of a 2.5-micron encapsulated microbubble in air-saturated liquid
Type: physicochemical
Settings: for Dissolution time: 2.5-micron encapsulated microbubble, air-saturated liquid

| SMILES | stability of microbubbles relative to microbubbles containing C5F12 (from Table 4) | Dissolution time | stability of microbubbles relative to microbubbles containing C3F8 (from Table 4) | stability of microbubbles relative to microbubbles containing C4F10 (from Table 4) |
| --- | --- | --- | --- | --- |
| FC(F)(F)C(F)(F)C(F)(F)C(F)(F)C(F)(F)C(F)(F)F [Perfluorohexane] | only minimal increase in stability | – | – | – |
| FC(F)(F)C(F)(F)C(F)(F)C(F)(F)C(F)(F)F [Perfluoropentane (DDFP), Perfluoropentane] | – | 17 days | ~14,000 times | about five |
| FC(F)(F)C(F)(F)C(F)(F)F [Perfluoropropane] | – | 0.0292 days | – | – |
| FC(F)(F)C(F)(F)C(F)(F)C(F)(F)F [Perfluorobutane] | – | 3.46 days | – | – |
